For data set [1], the system named is ALP (alkaline phosphatase). Kind of data set: ALP activity assay in MC3T3-E1 cells. Format: cell-based, Mouse. The following applies: for increase of ALP activity: MC3T3-E1 cells, differentiation medium, 48 hours, versus control. The protocol:
(§1) The MC3T3-E1 cell (Mouse osteoblastic cell line) was cultivated under conditions of 37° C. and 5% CO2 at the minimal essential media (α-MEM) (Gibco) containing 10% prenatal serum and 1% penicillin/streptomycin. For the test of differentiation induction, cells were cultivated in α-MEM mediums containing 50 μg/ml ascorbic acid and 100 mM β-glycerophosphate.
5×10^4 MC3T3-E1 cells were incubated on a 24 well plate for two days and stuck. After confirming that the cells reached 100% confluency, the medications (5,6-dichloroindirubin-3′-methoxime in Example 1) were treated in the differentiation medium for 48 hours. The cells were cleaned with a phosphoric acid buffer solution and the samples harvested were treated with a buffer solution (pH 10.3) containing 50 mM Tris-chloric acid, 100 mM glisin and p-nitro phenylpospate after cell lysis. For analysis, 3 M sodium hydroxide was treated, and absorbance was measured at 405 nm. The ALP activity was quantified by measuring the protein concentration using Bradford Analyzer.
ALP activity analysis was performed as Experimental Method 5 to determine the effect of 5,6-dichloroindirubin-3′-methoxime in Example 1 and 5-methoxylindirubin-3′-oxime in Example 2 on bone mineral density. FIG. 4 is a table showing the measured a graph showing ALP activity in cells and a table showing the degree of ALP activity in cells treated with 5,6-dichloroindirubin-3′-methoxime of Example 1 according to the present invention, 5-methoxylindirubin-3′-oxime of Example 2, indirubin derivatives of Comparative Examples 1-5 and 12. The control is the ALP activity in the cells prior to drug treatment.

The subject of another data set is longitudinal bone. In words: ex-vivo longitudinal bone culture, length measurement. In kind it is cell-based, C57BL/6 mice. The conditions noted are these: for length of the longitudinal bone increased more effectively than by comparative indirubin derivatives: versus Comparative Examples 8, 9 and 10-12; for increase of the length of the long bone relative to the control group: printed as about two times (180%). The method, then:
Longitudinal bones were isolated from 15.5 embryonic day C57BL/6 mice and incubated for 7 days in a 24-well tissue culture dish. Medium was used as Minimal Essential Medim (α-MEM, Gibco) including 10% fetal bovine serum (FBS), 1 mM beta polyglycerol disodium phosphate, 50 ng/ml ascorbic acid, 0.3 g/L-glutamine, 0.2% BSA, 100 U/ml penicillin, 100 μg/ml streptomycin. After the longitudinal bone was separated from the mouse, the longitudinal bone isolated from the medium was incubated for 24 hours, and the drug was treated. The medium and the drug (here are Example 1, Example 2, Comparative Examples 1, 7-9 and indirubin derivatives of 10-12) were changed every other day. The length of the longitudinal bone was measured before and after treatment with the drug. The longitudinal bone tissue after drug treatment was marched with PBS and fixed using 4% formaldehyde.
In order to more precisely determine the effect of indirubin derivatives in Example 1 or Example 2 of the present invention and other indirubin derivatives on the culture of ex-vivo longintudinal bone, various indirubin derivatives (Examples 1 and 2 and comparison Example 1, 8, 9, 10-12 indirubin derivatives) were treated as in Experimental Method 6, and the length of the longitudinal bone was measured.
FIG. 1 is a photograph of the longitudinal bone cultured at each ex-vivo when treated with indirubin induction in Example 1, Example 2, and Comparison Example 1, 8, 9, 10-12. FIG. 2 is a graph and table showing the variation in the length of the longitudinal bone measured in FIG. 1. In this case, the drooping indirubin derivatives were identical at 0.5 μM and treated in culture medium for 6 days.
We sought to determine more accurately the effect of 6-bromoindirubin-3′-oxime (Comparative Example 6) on the culture of ex-vivo longitudinal bone. FIG. 3A is a photograph (left) of a longitudinal bone culture in ex-vivo and a graph showing the numerical value when treated with 6-bromoindirubin-3′-oxime of Comparative Example 6 (right). At that time, 0.5 μM 6-bromoindirubin-3′-oxime was treated in culture medium for 6 days. The control is longitudinal bone treated with DMSO solution instead of drug.

Data set [2] has as its system β-catenin. Kind of data set: Western blot for β-catenin stabilization in MC3T3-E1 cells. Format: cell-based, Mouse. The following applies: 24 hours treatment. The protocol:
as §1
For Western blot analysis, drugs (here are 5,6-dichloroindirubin-3′-methoxime, 5-methoxylindirubin-3′-oxime) were treated 24 hours, and MC3T3-E1 cells were cultured and harvested in a culture dish to reach 100% confluency. Harvested samples for immunoblot was performed to quantify the protein was after cell lysis, using SDA-PAGE gel using the antibody after electrophoresis.
FIG. 5 is the result of Western blot using MC3T3-E1 cells (osteoblast cells) to confirm the effects of 5,6-dichloroindirubin-3′-methoxime of Example 1 and 5-methoxyindirubin-3′-oxime of Example 2 on the stability of β-catenin.

Data set [3] has as its system β-catenin. In words: Immunocytochemistry of β-catenin expression and localization in ATDC5 cells. In kind it is cell-based, Murine. The conditions noted are these: 24 hours treatment, ICC. The method, then: (§2) The ATDC5 cell (Murine constant cell line) was cultured in the DMEM (Dulbecco's modified Eagle's medium, Gibco, Grand Island, N.Y.) containing 5% Fetal Bovine Serum (FBS) and 1% penicillin/streptomycin under conditions of 37° C. and 5% CO2.
Drugs (here are 5,6-dichloroindirubin-3′-methoxime, 5-methoxylindirubin-3′-oxime) were treated for 24 hours when the cells were securely attached to the cover glass that was placed in the 12 well plate at a density of 2.5×10^4 cells per well. Cells were cleaned with phosphoric acid buffer solution and fixed at room temperature for 20 minutes by adding 4% paraformaldehyde, and then a protein expressed in the cells was observed through the process of permeabilization, blocking and immunofluorescence.
FIG. 6 is a photograph confirming the β-catenin concentration in the ATDC5 cells treated with 5,6-dichloroindirubin-3′-methoxime of Example 1 and 5-methoxylindirubin-3′-oxime of Example 2 by immunocytochemistry. In other words, the expression and localization of β-catenin in ATDC5 cells were confirmed through ICC.

The nature of data set [4]: oral toxicity study in mouse. The conditions noted are these: in vivo. The protocol:
When an indirubin derivative represented by Formula 1 (5,6-dichloroindirubin-3′-methoxime) and an indirubin derivative represented by Formula 2 (5-methoxylindirubin-3′-oxime) were orally administered to a mouse for toxicity studies, they are considered to be safe substances because the 50% lethal dose (LD 50) of them are at least 1,000 mg/kg.

The test system of data set [5] is osteoblasts and chondrocytes. In words: toxicity to osteoblasts and chondrocytes. In kind it is cell-based.
Data set [6] deals with ATDC5 cells (chondrocytes). In words: MTT reduction analysis. In kind it is cell-based, Murine. The following applies: 24 hours treatment. The method, then:
as §2
When the cells were stably attached after 5×10^3 ATDC5 cells were stuck in 96 well plate, the drug (here is 6-bromoindirubin-3′-oxime) was treated. After 24 hours, transfer to a medium containing 100 μg/ml MTT [3-(4,5-dimethylthiazol-2-yl)-2,5-diphenyletrazoliumbromide)] and incubate the cells for 2 hours before removing the growth medium. The MTT, which was reduced to purple formazan, was dissolved with DMSO and then excreted at 540 nm by ab absorbance measurement.
FIG. 3B is a graph of MTT reduction analysis of chondrocytes after treatment of different concentration of 6-bromoindirubin-3′-oxime to confirm if the reduction in the length of longitudinal bone treated with 6-bromoindirubin-3′-oxime in Comparative Example 6 is related to the effect on the survival rate of chondrocytes.
MTT reduction assay is a method to measure the viability of cells by analyzing the difference in absorbance due to the reduction of yellow MTT to purple formazan caused by mitochondrial enzyme reaction in living cells.
On the technique in general: Tetrazolium dyes change colour on reduction, which living cells bring about.

The mark [7] stands for this setting: 0.5 μM, 6 days in culture medium.

Read-outs that look alike come from different tables or passages of the source.

The results in this text go back to patent US11459311B2, “Pharmaceutical composition containing indirubin derivative as active ingredient” (CK Regeon Inc., priority 2017, dated 2022).

For `COc1ccc2c(c1)/C(=C1/Nc3ccccc3/C1=N\O)C(=O)N2` [Example 2, 5-methoxylindirubin-3′-oxime], the “increase of ALP activity” value in data set [1] was approximately 2 fold. In data set [1] (versus other indirubin derivatives, test not specified), the “effects on bone growth, bone thickness or both more significant than those of other indirubin derivatives” value is “more than 30%”. Also, the “length of the longitudinal bone increased more effectively than by comparative indirubin derivatives” value in the data set with longitudinal bone (setting [7]) is “about 54%”. In addition, the “increase of the length of the long bone relative to the control group” value with longitudinal bone is reported as approximately 180%. Moreover, the “stabilization of β-catenin” value in the data set with β-catenin [2] was “significantly induced the stabilization of β-catenin”. The “movement of stabilized β-catenin into the nucleus” value with β-catenin [3] is recorded as “increase the mobility of the stabilized β-catenin into the nucleus”. For the same molecule, the LD50 in data set [4] was not below 1000 mg/kg. For the same molecule, the “toxicity to osteoblasts and chondrocytes” value in data set [5] is listed as “not toxic”.

As for `O=C1Nc2cc(Br)ccc2/C1=C1/Nc2ccccc2/C1=N\O` [Comparative Example 6, 6-bromoindirubin-3′-oxime], in data set [6] (5 μM), the “survival rate of chondrocytes” value was “below 50%”. Also, the “concentration at which growth of chondrocytes is inhibited” value in data set [6] is not below 1000 nM. Further, the “length of the ex-vivo longitudinal bone compared to control group” value in the data set with longitudinal bone (0.5 μM, 6 days in culture medium, control DMSO) is reported as “reduced”.

For the molecule `CO/N=C1/C(=C2/C(=O)Nc3cc(Cl)c(Cl)cc32)Nc2ccccc21` [Example 1, 5,6-dichloroindirubin-3′-methoxime], the “increase of ALP activity” value in data set [1] is given as approximately 2 fold. Also, the “length of the longitudinal bone increased more effectively than by comparative indirubin derivatives” value with longitudinal bone (setting [7]) is reported as “about 54%”. Moreover, the “increase of the length of the long bone relative to the control group” value in the data set on longitudinal bone is given as approximately 180%. The “stabilization of β-catenin” value with β-catenin [2] is on record as “significantly induced the stabilization of β-catenin”. Also, the “movement of stabilized β-catenin into the nucleus” value with β-catenin [3] is recorded as “increase the mobility of the stabilized β-catenin into the nucleus”. Besides, the LD50 in data set [4] (orally administered, read-out: 50% lethal dose (LD 50)) was not below 1000 mg/kg. For the same molecule, the “toxicity to osteoblasts and chondrocytes” value in data set [5] was “not toxic”.
